From patent US20230049917A1, “Pharmaceutical Composition of CASR Modulators and Methods and Uses Thereof” (Lupin Limited, priority 2019, published 2023)

Assays:
iPTH = experiment: Phase 2 PK-PD Study: iPTH suppression in CKD patients with SHPT; type: in vivo, human; conditions: 25 mg once daily
Method: A randomized, double-blind, placebo-controlled phase 2 clinical study was conducted to assess the efficacy, pharmacokinetics (PK), pharmacodynamics (PD) and safety of 2-methyl-5-((2R,4S)-2-((((R)-1-(naphthalen-1-yl)ethyl)amino)methyl) chroman yl)benzoic acid, hydrochloride (Compound 3), as a monotherapy in patients with CKD with secondary hyperparathyroidism (SHPT). The patients enrolled in the study were either on dialysis or not on dialysis. Patients could continue taking doses (whether stable dosing or otherwise) of calcium supplements, phosphate binders, vitamin D, vitamin D analogues or a combination thereof for the treatment of SHPT in combination with Compound 3. Patients can take at least one calcium supplement, phosphate binder, vitamin D, vitamin D analogue or a combination thereof concurrently or concomitantly with Compound 3. Dosing for such calcium supplements, phosphate binders, vitamin D, vitamin D analogues or a combination thereof for the treatment of SHPT can be individualized based on patient's iPTH levels, and/or can correlate with doses presently used for the treatment of SHPT.
This was an open-label, non-randomized, single arm study enrolling 10 patients of which 6 patients were on dialysis and 4 were not on dialysis. All patients received 25 mg Compound 3, once daily for […], and thereafter underwent PK-PD assessments. All 6 patients (100%) on dialysis group completed the study while 2 patients out of 4 (50%) on not on dialysis group completed the study. One objective of this study were to determine PK parameters maximum concentration, time to maximum concentration, area under the curve (AUC) (AUC from time 0 up to the last quantifiable concentration; AUC from time 0 to infinity; AUC from time 0 to 24 hours), half-life, apparent clearance, and apparent volume of distribution from blood samples collected at scheduled time-points. Yet another objective of this study was to determine PD parameters mean absolute change and mean percentage change from baseline in corrected total serum calcium and phosphorus.
For efficacy assessments, the primary efficacy assessment included measurement of iPTH and the exploratory efficacy assessment included measurement of parathyroid gland size at scheduled time points. Blood samples for measurement of iPTH were collected during Day −30 to Day −1 (Screening Period); Day 1; Day 8+/−3 days; Day 15+/−3 days; Day 30+/−3 days; Day 60+/−3 days; and Day 90+/−3 days (EOT/Early Discontinuations). […] If the blood sample collected on Day 90 could not be analysed for any reason, the second blood sample had to be collected within 3 days of end of treatment (EOT). Chemiluminescence microparticles immunoassay (CMIA) (such as Abbott's ARCHITECT® Intact PTH assay) was used to quantify iPTH in serum and plasma. […]

[1] = target: human Ether-a-go-go-related gene (hERG) (Homo sapiens, UniProt Q12809); experiment: hERG liability
human Ether-a-go-go-related gene (hERG), sequence (Q12809 whole entry): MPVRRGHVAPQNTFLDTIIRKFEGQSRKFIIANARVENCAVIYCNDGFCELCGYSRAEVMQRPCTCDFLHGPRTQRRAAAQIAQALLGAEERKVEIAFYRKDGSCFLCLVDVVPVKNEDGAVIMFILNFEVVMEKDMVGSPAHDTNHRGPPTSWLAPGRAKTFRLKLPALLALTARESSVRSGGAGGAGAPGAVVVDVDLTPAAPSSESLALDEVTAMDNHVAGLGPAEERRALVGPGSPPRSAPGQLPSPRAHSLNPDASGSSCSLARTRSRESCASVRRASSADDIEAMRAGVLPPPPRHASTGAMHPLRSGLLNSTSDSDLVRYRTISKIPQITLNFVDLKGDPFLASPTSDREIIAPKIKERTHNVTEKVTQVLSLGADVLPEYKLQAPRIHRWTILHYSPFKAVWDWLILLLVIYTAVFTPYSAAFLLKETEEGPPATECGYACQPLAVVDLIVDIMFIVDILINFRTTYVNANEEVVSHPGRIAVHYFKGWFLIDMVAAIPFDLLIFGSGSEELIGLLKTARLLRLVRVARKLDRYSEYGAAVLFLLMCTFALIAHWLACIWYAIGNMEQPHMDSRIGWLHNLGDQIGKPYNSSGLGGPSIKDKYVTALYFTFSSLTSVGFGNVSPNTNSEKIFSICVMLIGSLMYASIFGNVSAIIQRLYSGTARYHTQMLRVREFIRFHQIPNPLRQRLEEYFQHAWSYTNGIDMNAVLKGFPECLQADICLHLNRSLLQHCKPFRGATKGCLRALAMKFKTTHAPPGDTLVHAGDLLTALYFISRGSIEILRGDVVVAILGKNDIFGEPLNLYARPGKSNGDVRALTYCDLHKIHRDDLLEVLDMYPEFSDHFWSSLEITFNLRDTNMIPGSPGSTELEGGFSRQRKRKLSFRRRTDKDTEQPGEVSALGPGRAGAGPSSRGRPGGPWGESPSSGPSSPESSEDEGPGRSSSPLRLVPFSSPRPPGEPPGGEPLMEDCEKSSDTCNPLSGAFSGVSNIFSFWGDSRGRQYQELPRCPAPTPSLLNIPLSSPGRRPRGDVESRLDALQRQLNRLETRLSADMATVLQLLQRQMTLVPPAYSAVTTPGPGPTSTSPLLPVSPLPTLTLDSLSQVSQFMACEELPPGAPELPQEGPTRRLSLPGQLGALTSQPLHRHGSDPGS

**Q.** `Cc1ccc([C@@H]2C[C@H](CN[C@H](C)c3cccc4ccccc34)Oc3ccccc32)cc1C(=O)O.Cl` [Compound 3, 2-methyl-5-((2R,4S)-2-((((R)-1-(naphthalen-1-yl)ethyl)amino)methyl)chroman-4-yl)benzoic acid hydrochloride] was tested. Which “peak effect on iPTH suppression from baseline” value (from here on “peak effect … from baseline”) (iPTH; Day 1, within 4 hours of dosing, patients on dialysis and not on dialysis) did it give?
**A.** Its value is > 80.0%.

**Q.** And the “time of peak effect on iPTH suppression after dosing” value (iPTH; Day 1 and Day 8)?
**A.** Its value is ≤ 4 h.

**Q.** And the “peak effect … from baseline” value (iPTH; Day 8, within 4 hours of dosing, patients not on dialysis)?
**A.** The value was > 85.0%.

**Q.** And the “peak effect … from baseline” value (iPTH; Day 8, within 4 hours of dosing, patients on dialysis)?
**A.** Its value is > 70.0%.

**Q.** What about the hERG liabilities [1] of the same compound?
**A.** Its hERG liabilities is “devoid”.
